Read-outs that look alike come from different tables or passages of the source.
How the values were obtained:
[1] = system: MKN45 gastric cancer cell line; test: Assay of inhibitory effect on cell proliferation (CellTiter-Glo); format: cell-based; conditions: Homo sapiens, MKN-45, 72 h, read-out: MKN45 cell IC50
Excerpt: Assay Example 2: Assay of Inhibitory Effect on Cell Proliferation
1. cell culture: DMEM medium, fetal bovine serum, DPBS
2. cell line: MKN45 gastric cancer cell line
3. detection reagent: live cell detection kit CellTiter-Glo
4. other main materials and reagents: compound dilution plate, middle plate, detection plate, DMSO
The content of ATP directly reflects the number and state of cells. By quantitation of ATP, the number of living cells can be detected. The living cell detection kit contains luciferase and its substrate. Through the participation of ATP, the luciferase can catalyze the substrate to emit a stable light signal. The number of ATP in the cells was determined by detecting the intensity of the signal. The light signal was directly proportional to the number of ATP in the cells, while ATP was positively correlated with the number of living cells, so that the proliferation of cells can be detected. The test plate was analyzed using Envision from PE Inc.
1. Preparation of the Cell Plate
The MKN45 cells were seeded into a 384-well plate with 200 cells per well. The cell plate was placed in a carbon dioxide incubator and incubated overnight.
2. Preparation of Compounds
Compounds were subject to a 5-fold serial dilution with Echo to obtain nine concentrations, in duplicate.
3. Treatment of Cells with Compounds
The compounds were transferred to the cell plate at an initial concentration of […]. The cell plate was placed in a carbon dioxide incubator and incubated for three days.
A Promega CellTiter-Glo reagent was added to the cell plate and incubated at room temperature for 10 minutes to stabilize the luminescence signal. A PerkinElmer Envision multi-label analyzer was used for reading.

[2] = system: Hs746t gastric cancer cells; test: Drug efficacy in a model with subcutaneous xenograft tumor of Hs746t gastric cancer cells; format: in vivo, BALB/c nude mice; conditions: for Tumor volume (Day 0): Day 0, Mean ± SEM; for Tumor volume (Day 20): Day 20, Mean ± SEM
Method: Assay Example 4: Assay of Drug Efficacy in a Model with Subcutaneous Xenograft Tumor of Hs746t Gastric Cancer Cells
Human gastric cancer Hs746t cells were cultured in vitro in monolayer. The culture conditions were DMEM medium plus 10% fetal bovine serum, 100 U/mL penicillin and 100 U/mL streptomycin, 37° C., 5% CO2 incubator. The passaging was carried out by conventional digestion with trypsin-EDTA twice a week. When the cell saturation was 80%-90%, and the number met the requirements, the cells were collected, counted, and inoculated.
(§1) BALB/c nude mice, male, 6-8 weeks old, weighted 18-22 grams.
0.2 mL (2×10^6, cells:Matrigel=1:1) of HS 746T cells were subcutaneously inoculated on the right back of each mouse. When the average tumor volume reached about 100-150 mm^3, administration to each group was started.
(§2) Assay index: The assay index is to investigate whether tumor growth is inhibited, delayed or cured. Tumor diameter was measured twice a week with a vernier caliper. The calculation formula of tumor volume is: V=0.5a×b^2, wherein a and b represent the long and short diameters of the tumor, respectively. The anti-tumor efficacy (TGI) of the compound was evaluated by T-C (day) and T/C (%).
Assay results: See Table 4.

MHCC97H cell = conditions: read-out: MHCC97H cell IC50; cited from earlier work
[3] = system: MKN45 gastric cancer cells; test: Drug efficacy in a model with subcutaneous xenograft tumor of MKN45 gastric cancer cells; format: in vivo, BALB/c nude mice; conditions: day 14 after administration; for Tumor volume (Day 14): Mean ± SEM
Method: Assay Example 3: Assay of Drug Efficacy in a Model with Subcutaneous Xenograft Tumor of MKN45 Gastric Cancer Cells
MKN45 cells were cultured in vitro in monolayer. The culture conditions were RPMI1640 medium plus 10% heat-inactivated fetal bovine serum, 1% penicillin-streptomycin, 37° C., and 5% CO2. The passaging was carried out by conventional digestion with trypsin-EDTA twice a week. When the cells were in the exponential growth phase, the cells were collected, counted, and inoculated.
as §1
0.2 ml of a suspension containing 5×10^6 MKN45 cells was inoculated subcutaneously on the right back of each mouse. When the average volume of the tumor reached about 160 mm^3, administration to each group was started.
as §2, with “index: the” for “index: The”, “whether the” for “whether”
Assay results: See Table 3.

[4] = three days incubation, CellTiter-Glo

With `Nc1nccc(Oc2ccc(NC(=O)c3cn(CC4CC4(F)F)c(=O)n(-c4ccc(F)cc4)c3=O)cc2F)c1Cl` (stereo not shown) [Example 3] the IC50 [1, 4] was 0.027 µM.

For `CN(C)C(=O)Nc1cc(Oc2ccc(NC(=O)c3cn(CC4CC4)c(=O)n(-c4ccc(F)cc4)c3=O)cc2F)ccn1` [Example 17], the TGI ([2]; 1.5 mpk) was 74.16%, the “Tumor volume (Day 0)” value ([2]; 1.5 mpk) was 127 ± 12 mm^3 and the “T/C (Day 20)” value ([2]; 1.5 mpk) was 30.68%. For the same molecule, the “Tumor volume (Day 20)” value ([2]; 1.5 mpk) was 780 ± 195 mm^3, the TGI ([2]; 4.5 mpk) was 104.82% and the “Tumor volume (Day 0)” value ([2]; 4.5 mpk) was 127 ± 13 mm^3. The “T/C (Day 20)” value ([2]; 4.5 mpk) was 0.15%, the “Tumor volume (Day 20)” value ([2]; 4.5 mpk) was 4 ± 2 mm^3 and the TGI ([2]; 9 mpk) was 105.02%. For the same molecule, the “Tumor volume (Day 0)” value ([2]; 9 mpk) was 127 ± 9 mm^3, the “T/C (Day 20)” value ([2]; 9 mpk) was 0.00% and the “Tumor volume (Day 20)” value ([2]; 9 mpk) was 0 ± 0 mm^3.

`Nc1nccc(Oc2ccc(NC(=O)c3c4n(c(=O)n(-c5ccc(F)cc5)c3=O)CCC4)cc2F)c1Cl` [Example 12] gave an IC50 [1, 4] of 0.315 µM.

For `CCOc1ccn(-c2ccc(F)cc2)c(=O)c1C(=O)Nc1ccc(Oc2ccnc(N)c2Cl)c(F)c1` [BMS777607, reference compound], the IC50 [1, 4] was 0.436 µM, the TGI ([2]; 4.5 mpk) was 27.61% and the “Tumor volume (Day 0)” value ([2]; 4.5 mpk) was 127 ± 11 mm^3. For the same molecule, the “T/C (Day 20)” value ([2]; 4.5 mpk) was 73.58% and the “Tumor volume (Day 20)” value ([2]; 4.5 mpk) was 1872 ± 355 mm^3.

`C=CCn1cc(C(=O)Nc2ccc(Oc3ccnc(N)c3Cl)c(F)c2)c(=O)n(-c2ccc(F)cc2)c1=O` [Example 2] gave an IC50 [1] of 0.078 µM.

For `Cc1ccc(C(=O)Nc2ccc(Oc3cc4cnn(C)c4cc3-c3cn[nH]c3)c(F)c2)c(=O)n1-c1ccc(F)cc1` [LY2801653, reference compound], the TGI ([2]; 4.5 mpk) was 101.62%, the “Tumor volume (Day 0)” value ([2]; 4.5 mpk) was 127 ± 12 mm^3 and the “T/C (Day 20)” value ([2]; 4.5 mpk) was 3.45%. For the same molecule, the “Tumor volume (Day 20)” value ([2]; 4.5 mpk) was 88 ± 13 mm^3.

For `NC(=O)Nc1cc(Oc2ccc(NC(=O)c3cn(CC4CC4)c(=O)n(-c4ccc(F)cc4)c3=O)cc2F)ccn1` [Example 16], the IC50 [1] was 0.0507 µM.

In the case of `CC(C)Cn1cc(C(=O)Nc2ccc(Oc3ccnc(N)c3Cl)c(F)c2)c(=O)n(-c2ccc(F)cc2)c1=O` [Example 8], the IC50 [1, 4] is reported as 0.374 µM.

For `CN1CCC(COc2cnc(-c3cccc(Cn4nc(-c5cccc(C#N)c5)ccc4=O)c3)nc2)CC1` [Tepotinib], the IC50 (MHCC97H cell) is given as 0.0062 µM.

In the case of `O=C(Nc1ccc(Oc2ccnc(NC(=O)N3CCCC3)c2)c(F)c1)c1cn(CC2CC2)c(=O)n(-c2ccc(F)cc2)c1=O` [Example 20], the IC50 [1] is reported as 0.0291 µM.

`N#Cc1c(Oc2ccc(NC(=O)c3cn(CC4CC4)c(=O)n(-c4ccc(F)cc4)c3=O)cc2F)ccnc1N` [Example 14] showed an IC50 [1] of 0.03 µM.

`CC(C)n1cc(C(=O)Nc2ccc(Oc3ccnc(N)c3Cl)c(F)c2)c(=O)n(-c2ccc(F)cc2)c1=O` [Example 1] gave an IC50 [1] of 0.054 µM, a T/C [3] of 16.5% and a TGI [3] of 95.1%. The “Tumor volume (Day 14)” value [3] was 218 ± 31 mm^3.

`Nc1nccc(Oc2ccc(NC(=O)c3cn(CC(F)F)c(=O)n(-c4ccc(F)cc4)c3=O)cc2F)c1Cl` [Example 9] showed an IC50 [1] of 0.365 µM.

`O=C(Nc1ccc(Oc2ccnc(NC(=O)N3CCOCC3)c2)c(F)c1)c1cn(CC2CC2)c(=O)n(-c2ccc(F)cc2)c1=O` [Example 13] showed an IC50 [1] of 0.038 µM.

Work on `O=C(Nc1ccc(Oc2ccnc(NC(=O)N3CCC3)c2)c(F)c1)c1cn(CC2CC2)c(=O)n(-c2ccc(F)cc2)c1=O` [Example 18] yielded an IC50 [1] of 0.0121 µM.

For `Nc1nccc(Oc2ccc(NC(=O)c3cn(CC4CC4)c(=O)n(-c4ccc(F)cc4)c3=O)cc2F)c1Cl` [Example 5], the IC50 [1] was 0.011 µM, the TGI ([2]; 4.5 mpk) was 104.43% and the “Tumor volume (Day 0)” value ([2]; 4.5 mpk) was 126 ± 10 mm^3. For the same molecule, the “T/C (Day 20)” value ([2]; 4.5 mpk) was 0.78%, the “Tumor volume (Day 20)” value ([2]; 4.5 mpk) was 20 ± 8 mm^3 and the TGI ([2]; 9 mpk) was 105.01%. The “Tumor volume (Day 0)” value ([2]; 9 mpk) was 127 ± 10 mm^3, the “T/C (Day 20)” value ([2]; 9 mpk) was 0.00% and the “Tumor volume (Day 20)” value ([2]; 9 mpk) was 0 ± 0 mm^3. For the same molecule, the T/C [3] was 15.3%, the TGI [3] was 96.9% and the “Tumor volume (Day 14)” value [3] was 196 ± 17 mm^3.

In the case of `Cc1[nH]c(=O)n(-c2ccc(F)cc2)c(=O)c1C(=O)Nc1ccc(Oc2ccnc(N)c2Cl)c(F)c1` [Example 11], the IC50 [1] is reported as 0.24 µM.

From patent US11623923B2, “Uracil compound as c-MET/AXL inhibitor” (MEDSHINE DISCOVERY, INC., priority 2017, dated 2023)
